Reference: BindingDB's records for doi:10.1021/jm00001a010 (University of Massachusetts Medical School, 1995)

Molecular target: Thymidine kinase (Herpes simplex virus type 1)
Test: Binding affinity towards HSV-1 thymidine kinase was determined

## Nc1nc2c(ncn2CCCCO)c(=O)[nH]1 [2-amino-9-(4-hydroxybutyl)-6,9-dihydro-3H-purin-6-one]
  Ki: 2060 nM
